Results: the NIST ThermoML archive (doi:10.1021/je200811n)

Settings: Hot wire method

F/C=C/C(F)(F)F [trans-1,3,3,3-tetrafluoropropene]
Settings | thermal conductivity [W/m/K]
293.73 K, 303 kPa, Gas | 0.01311
293.77 K, 95 kPa, Gas | 0.0133
293.85 K, 231 kPa, Gas | 0.01317
293.9 K, 400 kPa, Gas | 0.01318
294.04 K, 155 kPa, Gas | 0.01319
294.06 K, 345 kPa, Gas | 0.01312
294.27 K, 95 kPa, Gas | 0.01329
294.45 K, 343 kPa, Gas | 0.01318
301.02 K, 868 kPa, Liquid | 0.07405
301.09 K, 873 kPa, Liquid | 0.07375
301.25 K, 21041 kPa, Liquid | 0.08609
301.27 K, 15433 kPa, Liquid | 0.08285
301.28 K, 15438 kPa, Liquid | 0.08293
301.32 K, 10268 kPa, Liquid | 0.07996
301.32 K, 21030 kPa, Liquid | 0.08586
301.33 K, 5341 kPa, Liquid | 0.07696
301.35 K, 15435 kPa, Liquid | 0.08267
301.36 K, 15436 kPa, Liquid | 0.08267
301.39 K, 877 kPa, Liquid | 0.07371
301.4 K, 10267 kPa, Liquid | 0.07978
301.41 K, 810 kPa, Liquid | 0.07351
301.41 K, 5340 kPa, Liquid | 0.07676
301.47 K, 877 kPa, Liquid | 0.07359
301.48 K, 201 kPa, Gas | 0.01405
301.5 K, 101 kPa, Gas | 0.01387
301.5 K, 812 kPa, Liquid | 0.07342
301.64 K, 15430 kPa, Liquid | 0.0828
301.69 K, 10267 kPa, Liquid | 0.07986
301.7 K, 201 kPa, Gas | 0.01393
301.71 K, 21026 kPa, Liquid | 0.08586
301.72 K, 5338 kPa, Liquid | 0.07673
301.73 K, 101 kPa, Gas | 0.01377
301.74 K, 15425 kPa, Liquid | 0.08254
301.75 K, 15438 kPa, Liquid | 0.08085
301.8 K, 875 kPa, Liquid | 0.07346
301.81 K, 10267 kPa, Liquid | 0.07952
301.82 K, 21035 kPa, Liquid | 0.08546
301.83 K, 5339 kPa, Liquid | 0.07652
301.9 K, 871 kPa, Liquid | 0.07331
301.92 K, 820 kPa, Liquid | 0.07315
301.95 K, 201 kPa, Gas | 0.01381
301.98 K, 101 kPa, Gas | 0.01368
302.06 K, 15424 kPa, Liquid | 0.08252
302.07 K, 283 kPa, Gas | 0.01426
302.13 K, 10265 kPa, Liquid | 0.07959
302.17 K, 5336 kPa, Liquid | 0.0765
302.2 K, 201 kPa, Gas | 0.01376
302.23 K, 21022 kPa, Liquid | 0.08536
302.24 K, 102 kPa, Gas | 0.01362
302.26 K, 867 kPa, Liquid | 0.07328
302.26 K, 10266 kPa, Liquid | 0.07933
302.28 K, 278 kPa, Gas | 0.01416
302.28 K, 835 kPa, Liquid | 0.07308
302.31 K, 5328 kPa, Liquid | 0.07627
302.38 K, 21010 kPa, Liquid | 0.0851
302.4 K, 858 kPa, Liquid | 0.07303
302.43 K, 15441 kPa, Liquid | 0.08206
302.46 K, 201 kPa, Gas | 0.01371
302.51 K, 101 kPa, Gas | 0.01358
302.51 K, 273 kPa, Gas | 0.01407
302.51 K, 345 kPa, Gas | 0.01391
302.52 K, 15424 kPa, Liquid | 0.08203
302.61 K, 10265 kPa, Liquid | 0.07929
302.67 K, 5319 kPa, Liquid | 0.07625
302.68 K, 15424 kPa, Liquid | 0.08166
302.74 K, 270 kPa, Gas | 0.01405
302.77 K, 10264 kPa, Liquid | 0.079
302.78 K, 847 kPa, Liquid | 0.07298
302.8 K, 868 kPa, Liquid | 0.07244
302.84 K, 5317 kPa, Liquid | 0.07599
302.84 K, 21005 kPa, Liquid | 0.08503
302.86 K, 345 kPa, Gas | 0.01388
302.91 K, 15440 kPa, Liquid | 0.08218
302.94 K, 321 kPa, Gas | 0.01444
302.99 K, 267 kPa, Gas | 0.01402
303 K, 21003 kPa, Liquid | 0.08496
303.03 K, 15420 kPa, Liquid | 0.08154
303.06 K, 201 kPa, Gas | 0.01387
303.09 K, 515 kPa, Gas | 0.01405
303.1 K, 443 kPa, Gas | 0.01398
303.22 K, 15419 kPa, Liquid | 0.08081
303.24 K, 345 kPa, Gas | 0.01392
303.3 K, 101 kPa, Gas | 0.01415
303.42 K, 515 kPa, Gas | 0.01408
303.44 K, 443 kPa, Gas | 0.01405
303.46 K, 201 kPa, Gas | 0.01405
303.5 K, 21000 kPa, Liquid | 0.08483
303.63 K, 345 kPa, Gas | 0.01394
303.77 K, 515 kPa, Gas | 0.01408
303.8 K, 441 kPa, Gas | 0.01404
303.82 K, 515 kPa, Gas | 0.01409
303.89 K, 201 kPa, Gas | 0.01411
304.06 K, 345 kPa, Gas | 0.01397
304.14 K, 515 kPa, Gas | 0.01407
304.18 K, 102 kPa, Gas | 0.01422
304.18 K, 441 kPa, Gas | 0.01406
304.34 K, 201 kPa, Gas | 0.01397
304.53 K, 514 kPa, Gas | 0.01408
304.57 K, 442 kPa, Gas | 0.01401
304.57 K, 514 kPa, Gas | 0.0141
304.66 K, 101 kPa, Gas | 0.0142
311.41 K, 326 kPa, Gas | 0.01522
311.43 K, 200 kPa, Gas | 0.01495
311.44 K, 102 kPa, Gas | 0.01483
311.61 K, 325 kPa, Gas | 0.01511
311.65 K, 200 kPa, Gas | 0.01482
311.67 K, 102 kPa, Gas | 0.01465
311.83 K, 325 kPa, Gas | 0.01504
311.89 K, 200 kPa, Gas | 0.0147
311.91 K, 101 kPa, Gas | 0.01455
312.06 K, 325 kPa, Gas | 0.015
312.14 K, 200 kPa, Gas | 0.01462
312.16 K, 101 kPa, Gas | 0.01449

Settings | thermal conductivity [W/m/K]
303.15 K, Liquid | 0.07268
